# Measurements published in paper PMC10938783, “A novel pan-PI3K inhibitor KTC1101 synergizes with anti-PD-1 therapy by targeting tumor suppression and immune activation” (Molecular Cancer, 2024).
# Test system: B16 cells gene expression
# Assay: RNA-Seq (DEGs, GSEA, heatmaps) of B16 cells
# Conditions: B16 cells, KTC 0.2μM
# [1] = GSEA gene set HALLMARK_PI3K_AKT_MTOR_SIGNALING
# [2] = GSEA gene set HALLMARK_PROTEIN_SECRETION
# [3] = GSEA gene set HALLMARK_REACTIVE_OXIGEN_SPECIES_PATHWAY
# [4] = GSEA gene set HALLMARK_SPERMATOGENESIS
# [5] = GSEA gene set HALLMARK_TGF_BETA_SIGNALING
# [6] = GSEA gene set HALLMARK_TNFA_SIGNALING_VIA_NFKB
# [7] = GSEA gene set HALLMARK_UNFOLDED_PROTEIN_RESPONSE
# [8] = GSEA gene set HALLMARK_UV_RESPONSE_DN
# [9] = GSEA gene set HALLMARK_UV_RESPONSE_UP
# [10] = GSEA gene set HALLMARK_WNT_BETA_CATENIN_SIGNALING
# [11] = GSEA gene set HALLMARK_XENOBIOTIC_METABOLISM
smiles,measurement,setting,value
"COc1cc(N)cc2c1nc(C(F)F)n2-c1nc(N2CCCOCC2)nc(N2CCOCC2)n1 [KTC1101, 2-(difluoromethyl)-4-methoxy-1-(4-morpholino-6-(1,4-oxazepan-4-yl)-1,3,5-triazin-2-yl)-1H-benzo[d]imidazol-6-amine]",enrichmentScore,GSEA gene set HALLMARK_PEROXISOME,-0.395
same,NES,[1],-2.189
same,enrichmentScore,[1],-0.5044
same,NES,[2],-1.203
same,enrichmentScore,[2],-0.2769
same,NES,[3],-1.95
same,enrichmentScore,[3],-0.5432
same,NES,[4],-1.401
same,enrichmentScore,[4],-0.3536
same,NES,[5],1.944
same,enrichmentScore,[5],0.6123
same,NES,[6],2.211
same,enrichmentScore,[6],0.5723
same,NES,[7],-1.548
same,enrichmentScore,[7],-0.347
same,NES,[8],1.23
same,enrichmentScore,[8],0.3315
same,NES,[9],1.315
same,enrichmentScore,[9],0.3557
same,NES,[10],0.901
same,enrichmentScore,[10],0.3071
same,NES,[11],-1.2042
same,enrichmentScore,[11],-0.2641
same,NES: Glycolysis / Gluconeogenesis,GSEA KEGG mmu00010,-1.905
same,enrichmentScore: Glycolysis / Gluconeogenesis,GSEA KEGG mmu00010,-0.5183
same,NES: Citrate cycle (TCA cycle),GSEA KEGG mmu00020,-1.91
same,enrichmentScore: Citrate cycle (TCA cycle),GSEA KEGG mmu00020,-0.5694
same,NES: Pentose phosphate pathway,GSEA KEGG mmu00030,-1.779
same,enrichmentScore: Pentose phosphate pathway,GSEA KEGG mmu00030,-0.5767
same,NES: Fructose and mannose metabolism,GSEA KEGG mmu00051,-1.345
same,enrichmentScore: Fructose and mannose metabolism,GSEA KEGG mmu00051,-0.4104
same,NES: Galactose metabolism,GSEA KEGG mmu00052,-1.484
same,enrichmentScore: Galactose metabolism,GSEA KEGG mmu00052,-0.4712
same,NES: Oxidative phosphorylation,GSEA KEGG mmu00190,-2.112
same,enrichmentScore: Oxidative phosphorylation,GSEA KEGG mmu00190,-0.4855
same,NES: Purine metabolism,GSEA KEGG mmu00230,1.524
same,enrichmentScore: Purine metabolism,GSEA KEGG mmu00230,0.4484
same,NES: Pyrimidine metabolism,GSEA KEGG mmu00240,-1.587
same,enrichmentScore: Pyrimidine metabolism,GSEA KEGG mmu00240,-0.5015
same,"NES: Alanine, aspartate and glutamate metabolism",GSEA KEGG mmu00250,-1.481
same,"enrichmentScore: Alanine, aspartate and glutamate metabolism",GSEA KEGG mmu00250,-0.506
same,"NES: Glycine, serine and threonine metabolism",GSEA KEGG mmu00260,-2.025
same,"enrichmentScore: Glycine, serine and threonine metabolism",GSEA KEGG mmu00260,-0.643
same,NES: Cysteine and methionine metabolism,GSEA KEGG mmu00270,-1.68
same,enrichmentScore: Cysteine and methionine metabolism,GSEA KEGG mmu00270,-0.4743
same,"NES: Valine, leucine and isoleucine degradation",GSEA KEGG mmu00280,-1.453
same,"enrichmentScore: Valine, leucine and isoleucine degradation",GSEA KEGG mmu00280,-0.399
same,NES: Arginine and proline metabolism,GSEA KEGG mmu00330,-1.547
same,enrichmentScore: Arginine and proline metabolism,GSEA KEGG mmu00330,-0.474
same,NES: Glutathione metabolism,GSEA KEGG mmu00480,-1.885
same,enrichmentScore: Glutathione metabolism,GSEA KEGG mmu00480,-0.5172
same,NES: Amino sugar and nucleotide sugar metabolism,GSEA KEGG mmu00520,-1.225
same,enrichmentScore: Amino sugar and nucleotide sugar metabolism,GSEA KEGG mmu00520,-0.3367
same,NES: Glycerolipid metabolism,GSEA KEGG mmu00561,-1.232
same,enrichmentScore: Glycerolipid metabolism,GSEA KEGG mmu00561,-0.3383
same,NES: Ether lipid metabolism,GSEA KEGG mmu00565,-1.318
same,enrichmentScore: Ether lipid metabolism,GSEA KEGG mmu00565,-0.4355
same,NES: Pyruvate metabolism,GSEA KEGG mmu00620,-1.8611
same,enrichmentScore: Pyruvate metabolism,GSEA KEGG mmu00620,-0.5447
same,NES: Glyoxylate and dicarboxylate metabolism,GSEA KEGG mmu00630,-2.109
same,enrichmentScore: Glyoxylate and dicarboxylate metabolism,GSEA KEGG mmu00630,-0.6578
same,NES: Propanoate metabolism,GSEA KEGG mmu00640,-1.418
same,enrichmentScore: Propanoate metabolism,GSEA KEGG mmu00640,-0.4326
same,NES: Terpenoid backbone biosynthesis,GSEA KEGG mmu00900,-2.318
same,enrichmentScore: Terpenoid backbone biosynthesis,GSEA KEGG mmu00900,-0.7921
same,NES: Drug metabolism - other enzymes,GSEA KEGG mmu00983,-1.978
same,enrichmentScore: Drug metabolism - other enzymes,GSEA KEGG mmu00983,-0.5867
same,NES: Carbon metabolism,GSEA KEGG mmu01200,-2.129
same,enrichmentScore: Carbon metabolism,GSEA KEGG mmu01200,-0.4924
same,NES: 2-Oxocarboxylic acid metabolism,GSEA KEGG mmu01210,-1.574
same,enrichmentScore: 2-Oxocarboxylic acid metabolism,GSEA KEGG mmu01210,-0.4801
same,NES: Fatty acid metabolism,GSEA KEGG mmu01212,-1.192
same,enrichmentScore: Fatty acid metabolism,GSEA KEGG mmu01212,-0.3243
same,NES: Biosynthesis of amino acids,GSEA KEGG mmu01230,-2.742
same,enrichmentScore: Biosynthesis of amino acids,GSEA KEGG mmu01230,-0.7082
same,NES: Nucleotide metabolism,GSEA KEGG mmu01232,-1.799
same,enrichmentScore: Nucleotide metabolism,GSEA KEGG mmu01232,-0.4975
same,NES: Biosynthesis of cofactors,GSEA KEGG mmu01240,-1.22
same,enrichmentScore: Biosynthesis of cofactors,GSEA KEGG mmu01240,-0.2823
same,NES: EGFR tyrosine kinase inhibitor resistance,GSEA KEGG mmu01521,1.545
same,enrichmentScore: EGFR tyrosine kinase inhibitor resistance,GSEA KEGG mmu01521,0.4546
